This note sets out measurements from US8481541B2, “Pyrrolopyrazine kinase inhibitors” (Hoffmann-La Roche Inc., priority 2010, dated 2013).

Data set [1] concerns the target T1, h-jak3(810-1124) (JAK3 recombinant human kinase domain) (Homo sapiens, UniProt P52333).
T1 construct: Ic50 h-jak3(810-1124)-; made in house; host or cells: Sf9 insect cells
Nature of the data set: Determination of IC50 of Janus Kinase (JAK) inhibition, radioactive end-point 33P-ATP kinase assay, JAK3. It counts as biochemical. As to conditions: JAK3 kinase domain (810-1124), sf9; no additive; ATP 1.5 uM, peptide 50 uM, 20 minutes, room temperature; read-out: Ic50 h-jak3(810-1124)-sf9-c: no additive. The text has this: Determination of IC50 of Janus Kinase (JAK) Inhibition:
Enzymes and peptide substrate used are described below: • JAK1: Recombinant human kinase domain from Invitrogen (Cat # PV4774) • JAK3: Recombinant human kinase domain from Millipore (Cat # 14-629) or prepared. • JAK2: Recombinant human kinase domain from Millipore (Cat # 14-640) Substrate: N-terminally biotinylated 14-mer peptide derived from activation loop of JAK1 with sequence of the peptide substrate: Biotin-[…]
Assay conditions used are described below: • Assay Buffer: JAK Kinase Buffer: 50 mM Hepes [pH 7.2], 10 mM MgCl2, 1 mM DTT, 1 mg/ml BSA. The assay was carried out in this buffer. • Assay Format The kinase activity of all three JAK kinases was measured using a radioactive, end-point assay and with trace amounts of ^33P-ATP. The assays were carried out in 96-well polypropylene plates. Experimental Method:
All concentrations were final in the reaction mixture and all incubations were carried at room temperature. Assay steps are described below: • 1) Compounds were serially diluted in 100% DMSO typically at a 10× starting concentration of 1 mM. Final concentration of DMSO in the reaction was 10%. • 2) Compounds were preincubated with enzyme (0.5 nM JAK3 (commercially available), 0.2 nM JAK3 (prepared), 1 nM JAK2, 5 nM JAK1) for 10 minutes. • 3) Reactions were initiated by the addition of a cocktail of the two substrates (ATP and peptide premixed in the JAK Kinase Buffer). In the JAK2/JAK3 assays, ATP and the peptide were used at concentrations of 1.5 uM and 50 uM, respectively. JAK1 assay was carried out at an ATP concentration of 10 uM and a peptide concentration of 50 uM. • 4) The duration of the assay for JAK2 and JAK3 is 20 minutes. JAK1 assay was carried out for 40 minutes. With all three enzymes, reactions were terminated by the addition of 0.5M EDTA to a final concentration of 100 mM. • 5) 25 ul of terminated reactions were transferred to 150 ul of a 7.5% (v/v) slurry of streptavidin-coated sepharose beads in MgCl2- and CaCl2-free 1× Phosphate Buffered Saline containing 50 mM of EDTA in 96-well, 1.2 um MultiScreen-BV filter plates. • 6) After a 30-minute incubation, the beads were washed under vacuum with the following buffers: • a. 3 to 4 washes with 200 ul of 2M NaCl. • b. 3 to 4 washes with 200 ul of 2M NaCl plus 1% (v/v) phosphoric acid. • c. 1 wash with water. • 7) Washed plates were dried in a 60° C. oven for between 1 to 2 hours. • 8) 70 ul of Microscint 20 scintillation fluid was added to each well of filter plates and after at least 30 minutes of incubation, radioactive counts were measured in a Perkinelmer microplate scintillation counter.

T1 sequence (P52333 810-1124): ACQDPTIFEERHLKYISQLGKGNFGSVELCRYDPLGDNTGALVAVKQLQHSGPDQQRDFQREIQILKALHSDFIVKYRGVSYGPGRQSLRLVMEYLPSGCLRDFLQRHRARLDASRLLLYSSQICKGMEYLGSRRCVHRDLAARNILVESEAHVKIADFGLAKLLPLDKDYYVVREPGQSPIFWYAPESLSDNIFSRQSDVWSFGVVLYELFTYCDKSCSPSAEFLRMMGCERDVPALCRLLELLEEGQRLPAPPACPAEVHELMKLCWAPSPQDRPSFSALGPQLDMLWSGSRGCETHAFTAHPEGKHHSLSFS

`NC(=O)CNC(=O)c1c[nH]c2ncc(C3CC3)nc12` [Compound I-1, 2-Cyclopropyl-5H-pyrrolo[2,3-b]pyrazine-7-carboxylic acid carbamoylmethyl-amide] displayed a melting point of 215 to 220 °C. Further, the IC50 in data set [1] was found to be 287 nM.

`CC(CC(=O)NCC(F)(F)F)NC(=O)c1c[nH]c2ncc(C3CC3)nc12` (stereo not shown) [Compound I-2, 2-Cyclopropyl-5H-pyrrolo[2,3-b]pyrazine-7-carboxylic acid [1-methyl-2-(2,2,2-trifluoro-ethylcarbamoyl)-ethyl]-amide]: the melting point lay within 230 to 232 °C. The IC50 in data set [1] amounted to 200 nM.

Consider `CCNC(=O)CC(C)NC(=O)c1c[nH]c2ncc(C3CC3)nc12` (stereo not shown) [Compound I-3, 2-Cyclopropyl-5H-pyrrolo[2,3-b]pyrazine-7-carboxylic acid (2-ethylcarbamoyl-1-methyl-ethyl)-amide], for which the melting point was 182 to 184 °C. Besides, the IC50 in data set [1] was 909 nM.

Turning to `CCCNC(=O)CC(C)NC(=O)c1c[nH]c2ncc(C3CC3)nc12` (stereo not shown) [Compound I-4, 2-Cyclopropyl-5H-pyrrolo[2,3-b]pyrazine-7-carboxylic acid (1-methyl-2-propylcarbamoyl-ethyl)-amide], the melting point is 198 to 200 °C. Moreover, the IC50 in data set [1] turned out to be 836 nM.

`CC(CC(=O)NC1CC1)NC(=O)c1c[nH]c2ncc(C3CC3)nc12` (stereo not shown) [Compound I-5, 2-Cyclopropyl-5H-pyrrolo[2,3-b]pyrazine-7-carboxylic acid (2-cyclopropylcarbamoyl-1-methyl-ethyl)-amide] showed a melting point of 236 to 238 °C. Moreover, the IC50 in data set [1] came out at 986 nM.

As to `C[C@@H](NC(=O)c1c[nH]c2ncc(C3CC3)nc12)C(=O)N(C)C` [Compound I-6, 2-Cyclopropyl-5H-pyrrolo[2,3-b]pyrazine-7-carboxylic acid ((R)-1-dimethylcarbamoyl-ethyl)-amide], in data set [1], the concentration for half-maximal inhibition (IC50) was 112 nM.

Compound `CC(C)(C(N)=O)C(NC(=O)c1c[nH]c2ncc(C3CC3)nc12)C1CC1` (stereo not shown) [Compound I-7, 2-Cyclopropyl-5H-pyrrolo[2,3-b]pyrazine-7-carboxylic acid (2-carbamoyl-1-cyclopropyl-2-methyl-propyl)-amide] showed a melting point of 222 to 224 °C. In data set [1], the IC50 is 68 nM.

Take `C[C@@H](NC(=O)c1c[nH]c2ncc(C3CC3)nc12)C(=O)N(C)CC#N` [Compound I-8, 2-Cyclopropyl-5H-pyrrolo[2,3-b]pyrazine-7-carboxylic acid [(R)-1-(cyanomethyl-methyl-carbamoyl)-ethyl]-amide]: the IC50 in data set [1] amounted to 39.7 nM.

As to `C[C@H](NC(=O)c1c[nH]c2ncc(C3CC3)nc12)C(=O)N(C)C` [Compound I-9, 2-Cyclopropyl-5H-pyrrolo[2,3-b]pyrazine-7-carboxylic acid ((S)-1-dimethylcarbamoyl-ethyl)-amide], the IC50 in data set [1] was determined as 1240 nM.

For the compound `CC(C)C[C@@H](NC(=O)c1c[nH]c2ncc(C3CC3)nc12)C(=O)N(C)C` [Compound I-10, 2-Cyclopropyl-5H-pyrrolo[2,3-b]pyrazine-7-carboxylic acid ((R)-1-dimethylcarbamoyl-3-methyl-butyl)-amide], the IC50 in data set [1] is 95 nM.

For the compound `O=C(N[C@@H]1CCCNC1=O)c1c[nH]c2ncc(C3CC3)nc12` [Compound I-11, 2-Cyclopropyl-5H-pyrrolo[2,3-b]pyrazine-7-carboxylic acid ((R)-2-oxo-piperidin-3-yl)-amide], the IC50 in data set [1] is 315 nM.

In the case of `CN1CCC[C@@H](NC(=O)c2c[nH]c3ncc(C4CC4)nc23)C1=O` [Compound I-12, 2-Cyclopropyl-5H-pyrrolo[2,3-b]pyrazine-7-carboxylic acid ((R)-1-methyl-2-oxo-piperidin-3-yl)-amide], the IC50 in data set [1] was determined as 178 nM.

On to `N#CCCN1CCC[C@@H](NC(=O)c2c[nH]c3ncc(C4CC4)nc23)C1=O` [Compound I-13, 2-Cyclopropyl-5H-pyrrolo[2,3-b]pyrazine-7-carboxylic acid [(R)-1-(2-cyano-ethyl)-2-oxo-piperidin-3-yl]-amide], for which, in data set [1], the IC50 was found to be 138 nM.

One may read the IC50 as the concentration at which inhibition is half-maximal. By melting point is commonly meant the temperature, or range, at which the solid turns liquid.
